pEC50: −log10 of the molar value. Where a SMILES comes first, the peptide text is derived from it. Bridges are numbered along the chain shown (N, C = ends). Where no end group is shown, it is not given here. [ ]: non-standard residue; d: D form. The star is where a group is joined. PEG 40 kDa = PEG (40 kDa) covalently attached to Cys; Palmitoyl = CCCCCCCCCCCCCCCC(=O)*; Myristoyl = CCCCCCCCCCCCCC(=O)*; Aib = CC(C)(N)C(=O)O
Columns and labels:
[1] = target: T1, glucagon receptor (Homo sapiens, UniProt P47871); assay: cAMP synthesis functional assay (firefly luciferase reporter in HEK293 cells), glucagon receptor; type: cell-based; conditions: for pEC50: Glucagon Receptor EC50, cAMP luciferase reporter assay as in Example 16; for % activity at the glucagon receptor: Table 5, relative to the native hormone; for Glucagon Receptor relative activity: relative to the standard (Std.) EC50 of the same run
T1 construct: expressed in transfected cells; host or cells: HEK293
T1 sequence (P47871 26-477): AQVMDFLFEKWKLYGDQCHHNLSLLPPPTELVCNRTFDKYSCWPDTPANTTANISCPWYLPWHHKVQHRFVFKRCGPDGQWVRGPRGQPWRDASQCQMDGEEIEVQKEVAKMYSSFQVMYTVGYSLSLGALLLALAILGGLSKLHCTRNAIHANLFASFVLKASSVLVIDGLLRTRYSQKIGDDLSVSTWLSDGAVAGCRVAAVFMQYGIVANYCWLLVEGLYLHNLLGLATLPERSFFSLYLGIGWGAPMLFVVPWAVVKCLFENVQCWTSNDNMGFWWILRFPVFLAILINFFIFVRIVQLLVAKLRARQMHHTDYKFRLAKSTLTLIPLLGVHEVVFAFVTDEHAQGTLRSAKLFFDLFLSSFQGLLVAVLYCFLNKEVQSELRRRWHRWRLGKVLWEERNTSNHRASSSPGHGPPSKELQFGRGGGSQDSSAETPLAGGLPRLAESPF

[2] = target: T2, GLP-1 receptor (Homo sapiens, UniProt P43220); assay: cAMP synthesis functional assay (firefly luciferase reporter in HEK293 cells), GLP-1 receptor; type: cell-based; conditions: for % activity at the GLP-1 receptor: Table 5, relative to the native hormone; for GLP-1 Receptor relative activity: relative to the standard (Std.) EC50 of the same run
T2 construct: expressed in transfected cells; host or cells: HEK293
T2 sequence (P43220 24-463, species assumed): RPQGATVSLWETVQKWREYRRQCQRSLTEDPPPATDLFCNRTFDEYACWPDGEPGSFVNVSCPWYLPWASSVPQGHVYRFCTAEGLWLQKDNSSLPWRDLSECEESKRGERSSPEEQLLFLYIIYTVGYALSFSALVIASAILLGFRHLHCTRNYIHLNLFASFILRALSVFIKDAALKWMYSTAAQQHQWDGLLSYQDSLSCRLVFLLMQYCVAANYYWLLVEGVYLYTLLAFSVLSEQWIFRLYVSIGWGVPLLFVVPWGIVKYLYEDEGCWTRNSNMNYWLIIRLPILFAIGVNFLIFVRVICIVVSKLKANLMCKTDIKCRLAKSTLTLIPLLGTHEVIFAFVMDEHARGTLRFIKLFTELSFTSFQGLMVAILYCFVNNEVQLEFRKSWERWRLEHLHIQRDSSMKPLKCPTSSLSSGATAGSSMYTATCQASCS

[3] = target: T3, GIP receptor (Homo sapiens, UniProt P48546); assay: cAMP synthesis functional assay (firefly luciferase reporter in HEK293 cells), GIP receptor; type: cell-based; conditions: for % activity at the GIP receptor: Table 5, relative to the native hormone; for GIP Receptor relative activity: relative to the standard (Std.) EC50 of the same run
T3 construct: expressed in transfected cells; host or cells: HEK293
T3 sequence (P48546 22-466): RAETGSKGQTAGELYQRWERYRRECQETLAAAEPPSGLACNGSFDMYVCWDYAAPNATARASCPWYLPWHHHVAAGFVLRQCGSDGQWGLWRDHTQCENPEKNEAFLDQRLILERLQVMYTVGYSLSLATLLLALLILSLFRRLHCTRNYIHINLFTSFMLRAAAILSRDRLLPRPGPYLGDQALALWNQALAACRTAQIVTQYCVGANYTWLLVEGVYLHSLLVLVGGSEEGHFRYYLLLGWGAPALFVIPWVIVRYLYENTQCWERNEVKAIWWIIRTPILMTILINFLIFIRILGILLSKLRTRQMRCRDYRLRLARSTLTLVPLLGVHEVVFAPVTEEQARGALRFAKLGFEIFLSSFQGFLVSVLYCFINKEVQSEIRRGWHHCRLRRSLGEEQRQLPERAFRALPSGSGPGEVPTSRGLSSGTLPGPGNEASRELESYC

[4] = Body weight of mice after peptide injection; conditions: DIO mice; for body weight: Example 31, subcutaneous daily for 1 week, 10 nmol/kg
[5] = test system: glucagon receptor, GLP-1 receptor or GIP receptor; assay: Agonist profile across receptors assigned from the cAMP reporter assay data; type: cell-based; conditions: assigned from the in vitro EC50 data of Tables 1-4

For `CCCCCCCCCCCCCCCC(=O)NCCCC[C@H](NC(=O)[C@H](CO)NC(=O)[C@@H]1CCCN1C(=O)[C@@H]1CCCN1C(=O)[C@@H]1CCCN1C(=O)[C@H](C)NC(=O)CNC(=O)[C@H](CO)NC(=O)[C@H](CO)NC(=O)[C@@H]1CCCN1C(=O)CNC(=O)CNC(=O)[C@H](C)NC(=O)[C@H](CC(C)C)NC(=O)[C@H](CC(C)C)NC(=O)[C@H](Cc1c[nH]c2ccccc12)NC(=O)[C@H](CC(N)=O)NC(=O)[C@@H](NC(=O)[C@H](Cc1ccccc1)NC(=O)[C@H](CCC(=O)O)NC(=O)C(C)(C)NC(=O)[C@H](C)NC(=O)[C@H](C)NC(=O)[C@H](CCC(N)=O)NC(=O)[C@H](CCCCN)NC(=O)[C@H](CC(=O)O)NC(=O)[C@H](CC(C)C)NC(=O)[C@H](Cc1ccc(O)cc1)NC(=O)[C@@H](NC(=O)[C@H](CO)NC(=O)[C@H](Cc1ccc(O)cc1)NC(=O)[C@H](CC(=O)O)NC(=O)[C@H](CO)NC(=O)[C@@H](NC(=O)[C@H](Cc1ccccc1)NC(=O)[C@@H](NC(=O)CNC(=O)[C@H](CCC(N)=O)NC(=O)C(C)(C)NC(=O)[C@@H](N)Cc1ccc(O)cc1)[C@@H](C)O)[C@@H](C)O)[C@@H](C)CC)C(C)C)C(N)=O` [mt-278] (H-Y[Aib]QGTFTSDYSIYLDKQAA[Aib]EFVNWLLAGGPSSGAPPPSK(Palmitoyl)-NH2; N-terminus assumed), the pEC50 [1] was 11.07, the “% activity at the glucagon receptor” value [1] was 588% and the “Glucagon Receptor relative activity” value [1] was 588.37%. For the same compound, the “% activity at the GLP-1 receptor” value [2] was 460%, the “GLP-1 Receptor relative activity” value [2] was 459.52% and the pEC50 ([3]; GIP Receptor EC50, cAMP luciferase reporter assay as in Example 16) was 11.55. The “% activity at the GIP receptor” value [3] was 846%, the “GIP Receptor relative activity” value [3] was 846.43% and the body weight [4] was “caused significant weight loss in the mice”. For the same compound, the “receptor activity profile (glucagon / GLP-1 / GIP agonism)” value [5] was “exhibited activity at the GIP, GLP-1, and glucagon receptors”.

In the case of `CCCCCCCCCCCCCC(=O)NCCCC[C@H](NC(=O)[C@H](CO)NC(=O)[C@@H]1CCCN1C(=O)[C@@H]1CCCN1C(=O)[C@@H]1CCCN1C(=O)[C@H](C)NC(=O)CNC(=O)[C@H](CO)NC(=O)[C@H](CO)NC(=O)[C@@H]1CCCN1C(=O)CNC(=O)CNC(=O)[C@H](C)NC(=O)[C@H](CC(C)C)NC(=O)[C@H](CC(C)C)NC(=O)[C@H](Cc1c[nH]c2ccccc12)NC(=O)[C@H](CC(N)=O)NC(=O)[C@@H](NC(=O)[C@H](Cc1ccccc1)NC(=O)[C@H](CCC(=O)O)NC(=O)C(C)(C)NC(=O)[C@H](C)NC(=O)[C@H](C)NC(=O)[C@H](CCC(N)=O)NC(=O)[C@H](CCCCN)NC(=O)[C@H](CC(=O)O)NC(=O)[C@H](CC(C)C)NC(=O)[C@H](Cc1ccc(O)cc1)NC(=O)[C@@H](NC(=O)[C@H](CO)NC(=O)[C@H](Cc1ccc(O)cc1)NC(=O)[C@H](CC(=O)O)NC(=O)[C@H](CO)NC(=O)[C@@H](NC(=O)[C@H](Cc1ccccc1)NC(=O)[C@@H](NC(=O)CNC(=O)[C@H](CCC(N)=O)NC(=O)C(C)(C)NC(=O)[C@@H](N)Cc1ccc(O)cc1)[C@@H](C)O)[C@@H](C)O)[C@@H](C)CC)C(C)C)C(N)=O` [mt-277] (H-Y[Aib]QGTFTSDYSIYLDKQAA[Aib]EFVNWLLAGGPSSGAPPPSK(Myristoyl)-NH2; N-terminus assumed), the pEC50 [1] was 10.67, the “% activity at the glucagon receptor” value [1] was 235% and the “Glucagon Receptor relative activity” value [1] was 235.35%. The “% activity at the GLP-1 receptor” value [2] was 224%, the “GLP-1 Receptor relative activity” value [2] was 224.42% and the “% activity at the GIP receptor” value [3] was 446%. For the same compound, the “GIP Receptor relative activity” value [3] was 455.77%, the body weight [4] was “caused significant weight loss in the mice” and the “receptor activity profile (glucagon / GLP-1 / GIP agonism)” value [5] was “exhibited activity at the GIP, GLP-1, and glucagon receptors”.

With “mt-170: lactam-containing GLP-1/GIP/glucagon triagonist peptide, C-terminal amide (Y[Aib]QGTFTSDYSIYLDEQAAKEFVNWLLAGGPSSGAPPPSC(PEG 40 kDa)-NH2; lactam 16-20)” the “reduction of body weight” value ([4]; Example 22, subcutaneous QW, 70 or 210 nmol/kg/week) was “a little more effective at reducing body weight in the mice as Chimera 2 AIB2, but not as effective as Chimera 2 AIB2 lactam” and the “receptor activity profile (glucagon / GLP-1 / GIP agonism)” value [5] was “exemplary GLP-1/GIP/glucagon triagonist peptides”.

Reference: patent US9062124B2, “GIP-based mixed agonists for treatment of metabolic disorders and obesity” (priority 2008, dated 2015)
